From the OligoGym collection come the findings set out here.

The target of data set [1] is MYH7. The following applies: ASO, CC-2580, 5 µM.
The target in data set [2] is HTRA1. The following applies: ASO, U251, 5 µM.
The target in data set [3] is ANGPTL2. The following applies: ASO.

Where “and” joins values, the source holds several entries; their conditions need not be identical. Identical values can stand only once. After the bases stand the sugars from the 5' end (letter, count) and the backbone: PS all phosphorothioate, else s phosphorothioate and o phosphodiester by linkage. Methylation of C is not given here. l = locked nucleic acid (LNA); d = 2'-deoxy (DNA)

Turning to “TCAGCTTGGCGATGATCT (sugars lddldddddddlddllll, PS)”, the target mRNA inhibition in data set [1] is 43% and 45%. As to ATTGTATCGACTGCAT (sugars l3 d11 l2, PS), in data set [2], the target mRNA inhibition came out at 99%.

With “TCAGCTTGGCGATGATCT (sugars l2 d14 l2, PS)”, in data set [1], the target mRNA inhibition was 56% and 33%.

Turning to “CAGCTTGGCGATGATCT (sugars llddddddddldlddll, PS)”, the target mRNA inhibition in data set [1] was 26% and 5%. Regarding “CAGCTTGGCGATGATCT (sugars llddddddddldldlll, PS)”, in data set [1], the target mRNA inhibition is 32% and 17%.

Consider “CAGCTTGGCGATGATCT (sugars ldldllddlddddddll, PS)”, for which the target mRNA inhibition in data set [1] is -17% and -29%. In the case of “CAGCTTGGCGATGATCT (sugars lddlldddddddldlll, PS)”, in data set [1], the target mRNA inhibition was 4% and -21%. “CAGCTTGGCGATGATCT (sugars llddlddddddldldll, PS)”: the target mRNA inhibition in data set [1] is 18% and 3%.

Consider “CAGCTTGGCGATGATCT (sugars l2 d10 l1 d2 l2, PS)”, for which the target mRNA inhibition in data set [1] was 64% and 43%. As to “CAGCTTGGCGATGATCT (sugars lddlddldddddldlll, PS)”, the target mRNA inhibition in data set [1] was -32% and -42%.

“TCAGCTTGGCGATGATCT (sugars ldldlddddddldlddll, PS)”: the target mRNA inhibition in data set [1] is -4% and -12%. Consider “CAGCTTGGCGATGATCT (sugars lddlddddddddlddll, PS)”, for which, in data set [1], the target mRNA inhibition is 35% and 18%. For “CAGCTTGGCGATGATCT (sugars ldlddlddddddlddll, PS)”, in data set [1], the target mRNA inhibition is 47% and 25%. With “TCAGCTTGGCGATGATCT (sugars ldldlddddddlldldll, PS)”, the target mRNA inhibition in data set [1] is -30% and -41%.

In the case of “CTTGGCAATGATCTCATCC (sugars l4 d11 l4, PS)”, the target mRNA inhibition in data set [1] was 61% and 50%. “CTTGGCAATGATCTCATCC (sugars lddlddddddddlddldll, PS)”: in data set [1], the target mRNA inhibition is 59% and 39%. “CAGCTTGGCGATGATCT (sugars ldllldddddlddddll, PS)”: the target mRNA inhibition in data set [1] was 49% and 30%. Take “TCAGCTTGGCGATGATCT (sugars llddldddddddldddll, PS)”: the target mRNA inhibition in data set [1] was 35% and 17%. Consider “CAGCTTGGCGATGATCT (sugars lldddldddddldldll, PS)”, for which, in data set [1], the target mRNA inhibition was 25% and 16%. Regarding “CAGCTTGGCGATGATCT (sugars lddllddddddllddll, PS)”, the target mRNA inhibition in data set [1] is 9% and -10%.

Turning to “CAGCTTGGCGATGATCT (sugars l2 d6 l1 d5 l3, PS)”, the target mRNA inhibition in data set [1] was 7% and -9%. Turning to “CAGCTTGGCGATGATCT (sugars ldldlddddddldldll, PS)”, the target mRNA inhibition in data set [1] is 5% and -12%.

Regarding “CTTGGCAATGATCTCATCC (sugars lldddddddldddlddlll, PS)”, the target mRNA inhibition in data set [1] was 54% and 31%. The same measure, in the same setting: in the case of “CAGCTTGGCGATGATCT (sugars lddlddldlldddddll, PS)” it was -27% and -45%. “TTATAAACTCCTTGCTCTA (sugars l1 d14 l4, PS)”: the target mRNA inhibition was 33.2% in data set [3] (5 µM) and 42.4% in data set [3] (25 µM). As to “CTTGGCAATGATCTCATCC (sugars l3 d12 l4, PS)”, in data set [1], the target mRNA inhibition was 89% and 66%. As to “CAGCTTGGCGATGATCT (sugars l2 d8 l3 d2 l2, PS)”, in data set [1], the target mRNA inhibition is 39% and 30%. Take CCAAGGGCACGTTTTA (sugars l2 d12 l2, PS): the target mRNA inhibition in data set [3] (5 µM) is -4%; in data set [3] (25 µM), 13.2%. In the case of “CAGCTTGGCGATGATCT (sugars ldldddddddllddlll, PS)”, in data set [1], the target mRNA inhibition is 46% and 28%. As for “TCAGCTTGGCGATGATCT (sugars lddldldddddddlddll, PS)”, the target mRNA inhibition in data set [1] is 31% and 9%. Take “CAGCTTGGCGATGATCT (sugars lddldddddddldddll, PS)”: the target mRNA inhibition in data set [1] was -4% and -11%. With “ACATAATGTTTCATGCT (sugars l4 d11 l2, PS)”, the results for the target mRNA inhibition in data set [3] (5 µM) and in data set [3] (25 µM) were 46% and 45.8%, respectively. The matching figures for “TGATGATGCGGTTGTAG (sugars l3 d12 l2, PS)”: 64.2% and 70.3%. Take “TTTTGAGATTCCCCCAAA (sugars l1 d13 l4, PS)”: the target mRNA inhibition came out at 24.8% in data set [3] (5 µM) and 24.7% in data set [3] (25 µM).

Turning to “ATGATGCGGTTGTAGGT (sugars l2 d13 l2, PS)”, the target mRNA inhibition in data set [3] (5 µM) amounted to 57.5%.

For the sequence “TTGACAGGGATTAGGCA (sugars l1 d13 l3, PS)”, the target mRNA inhibition was 11.6% in data set [3] (5 µM) and 23.9% in data set [3] (25 µM). As for “TCAGCTTGGCGATGATCT (sugars llddldddddddldldll, PS)”, the target mRNA inhibition in data set [1] was 14% and 0%. Regarding “CATTTTGAGATTCCCCC (sugars l1 d14 l2, PS)”, the target mRNA inhibition in data set [3] (5 µM) is 27.1%; in data set [3] (25 µM), 14%. With “CTTGGCAATGATCTCATCC (sugars ldldddddddddlddldll, PS)”, in data set [1], the target mRNA inhibition is 68% and 43%. Take “ATCTTATTTTGTTTAACA (sugars l4 d10 l4, PS)”: the target mRNA inhibition is 60.2% in data set [3] (5 µM) and 51.7% in data set [3] (25 µM). Consider “CAGCTTGGCGATGATCT (sugars lddldlddlldddddll, PS)”, for which the target mRNA inhibition in data set [1] is 13% and 3%. Take “ACAGAGACTAGGCATTT (sugars l3 d10 l4, PS)”: the target mRNA inhibition in data set [3] (5 µM) came to 74.1%; in data set [3] (25 µM), 83.9%. Consider “GCAGCTCATTGTTGAGC (sugars l1 d14 l2, PS)”, for which the target mRNA inhibition in data set [3] (5 µM) came to 8.7%. For the sequence “CAGCTTGGCGATGATCT (sugars lddlldddldddddlll, PS)”, in data set [1], the target mRNA inhibition is 1% and -8%.

For the sequence “AGTGTTTAAGAAGAAATG (sugars l4 d10 l4, PS)”, the target mRNA inhibition in data set [3] (5 µM) came out at 41.7%; in data set [3] (25 µM), 54.8%. Consider “CAGCTTGGCGATGATCT (sugars lddldddddddldllll, PS)”, for which, in data set [1], the target mRNA inhibition is 7% and -16%.

Consider “CAGCTTGGCGATGATCT (sugars ldldlddddddllddll, PS)”, for which the target mRNA inhibition in data set [1] is 26% and 7%. In the case of CTCCGGTAATGGCCCC (sugars l1 d12 l3, PS), the target mRNA inhibition in data set [3] (5 µM) amounted to 28.6%; in data set [3] (25 µM), 25.4%.

Consider “CTTGGCAATGATCTCATCC (sugars lldldldddddddldldll, PS)”, for which the target mRNA inhibition in data set [1] is 16% and -4%.

For the sequence “CCAGTTCCTGAAGAAGTT (sugars l2 d14 l2, PS)”, the figures for the target mRNA inhibition in data set [3] (5 µM) and in data set [3] (25 µM) were 16.3% and 16.7%, respectively.

On to “GTTGATGATGCGGTTGTA (sugars l1 d15 l2, PS)”, for which the values for the target mRNA inhibition in data set [3] (5 µM) and in data set [3] (25 µM) were 44.2% and 53.9%, respectively. On to “GCTCATTGTTGAGCAGC (sugars l1 d14 l2, PS)”, for which the target mRNA inhibition in data set [3] (5 µM) was -2.2%; in data set [3] (25 µM) it was 3.15%. Consider “CAGCTTGGCGATGATCT (sugars lldddddddddldldll, PS)”, for which the target mRNA inhibition in data set [1] is 40% and 22%. Regarding “TCAGCTTGGCGATGATCT (sugars l2 d9 l1 d2 l4, PS)”, the target mRNA inhibition in data set [1] is 31% and 40%. For the sequence “CAGCTTGGCGATGATCT (sugars lllddddddddldldll, PS)”, the target mRNA inhibition in data set [1] was 28% and 6%. For the sequence “CTTGGCAATGATCTCATCC (sugars lldlddddddlddldldll, PS)”, the target mRNA inhibition in data set [1] is 1%. Consider “GACTAACTGTTGAAATTG (sugars l3 d11 l4, PS)”, for which the values for the target mRNA inhibition in data set [3] (5 µM) and in data set [3] (25 µM) were 26.9% and 30.8%, respectively.

Take CTTAATGGGCAGTAATA (sugars l4 d9 l4, PS): the target mRNA inhibition amounted to 32.6% in data set [3] (5 µM) and 42.3% in data set [3] (25 µM). Turning to “TGGTTGATGATGCGGTTGTA (sugars l1 d17 l2, PS)”, the target mRNA inhibition in data set [3] (5 µM) worked out at 48%; in data set [3] (25 µM), 53%. The matching figures for “CAGCTCATTGTTGAGCAG (sugars l2 d14 l2, PS)”: -19% and 7.91%. “AACCATTTTGAGATTCCCC (sugars l1 d16 l2, PS)”: the target mRNA inhibition in data set [3] (5 µM) was 28.5%; in data set [3] (25 µM) it was 17.6%. In the case of “GCAGTTATCACACCACA (sugars l1 d13 l3, PS)”, the target mRNA inhibition was determined as 38.9% in data set [3] (5 µM) and 44% in data set [3] (25 µM). In the case of “AACCCCAGAGGATATGT (sugars l1 d13 l3, PS)”, the target mRNA inhibition in data set [3] (5 µM) came to 49.3%; in data set [3] (25 µM), 58.9%.

On to “CAGCTTGGCGATGATCT (sugars lddlddddddldlldll, PS)”, for which the target mRNA inhibition in data set [1] is 21% and 13%. With “CAGGCACACTAATGAGA (sugars l2 d12 l3, PS)”, the target mRNA inhibition stood at 9.64% in data set [3] (5 µM) and 9.52% in data set [3] (25 µM). As to “CAGCTTGGCGATGATCT (sugars ldldlddlddddddlll, PS)”, the target mRNA inhibition in data set [1] was 18% and 3%. Turning to “CAGCTTGGCGATGATCT (sugars lddlldldlddddddll, PS)”, the target mRNA inhibition in data set [1] is 9% and -15%. Consider CAGCTTGGCGATGATCT (sugars l4 d9 l4, PS), for which the target mRNA inhibition in data set [1] was 27% and 4%. Consider “AGTGAGAGGAAGTCAGGG (sugars l1 d15 l2, PS)”, for which the values for the target mRNA inhibition in data set [3] (5 µM) and in data set [3] (25 µM) were 39.6% and 46.3%, respectively. The matching figures for “ATGAAGTCAGTCAGAGCCT (sugars l1 d16 l2, PS)”: 27.6% and 22.6%. Turning to ATAGCAGGGAGTGACC (sugars l2 d12 l2, PS), the figures for the target mRNA inhibition in data set [3] (5 µM) and in data set [3] (25 µM) were 8.4% and 26.5%, respectively. For the sequence “CAGCTTGGCGATGATCT (sugars ldldddddddlddldll, PS)”, the target mRNA inhibition in data set [1] is 39% and 27%. As to “CTTGGCAATGATCTCATCC (sugars lldldddddddldldldll, PS)”, in data set [1], the target mRNA inhibition was 39% and 26%. In the case of “CAGCTTGGCGATGATCT (sugars lddlddddddlllddll, PS)”, in data set [1], the target mRNA inhibition was -30%. Regarding “TCAGCTTGGCGATGATCT (sugars lldldddddddddldlll, PS)”, the target mRNA inhibition in data set [1] was 59% and 40%.

On to “CAGCTTGGCGATGATCT (sugars lldddddddlldlddll, PS)”, for which the target mRNA inhibition in data set [1] was 21% and 29%.

As for “CTTGGCAATGATCTCATCC (sugars l4 d13 l2, PS)”, the target mRNA inhibition in data set [1] was 60% and 45%. Consider “AAGTTGATAGTTTATCTCC (sugars l3 d14 l2, PS)”, for which the target mRNA inhibition in data set [3] (5 µM) was 76.3%; in data set [3] (25 µM), 83.8%.

For “CTTGGCAATGATCTCATCC (sugars llldddddddlddldldll, PS)”, in data set [1], the target mRNA inhibition was 60% and 35%. Take “TCAGCTTGGCGATGATCT (sugars lddldlddddddldllll, PS)”: the target mRNA inhibition in data set [1] was 25% and 12%.
